Measurements: US20110165173A1, “THERAPEUTIC AGENT AND DETECTION REAGENT FOR ARTERIOSCLEROTIC DISEASE WHICH TARGETS FOR SALUSIN” (PROTEINEXPRESS CO., LTD., priority 2007, published 2011)

Tested on: ACAT-1 protein expression
Test: ACAT-1 protein expression in human monocyte-derived macrophages during differentiation (Western blotting)
Assay type: cell-based
Settings: for ACAT-1 protein expression vs control cells: 0.6 nM
Description: In the Examples below, monocytes were prepared from human peripheral blood and cultured for 7 days so as to have differentiated into macrophages. At such time, salusin-α (0 to 10 nM) and salusin-β (0 to 10 nM) were simultaneously added thereto, and the effects of salusin were examined.
Culture of monocytes obtained from human peripheral blood was performed by a known method. Isolated monocytes were cultured with the addition of RPMI-1640 (15 mL) and then the floating monocytes were subjected to cell counting with a blood cell counting chamber. The cells were seeded on a 6-cm dish so as to result in 4×10^6 cells/2 mL. The monocytes were kept warm at 37° C. in the presence of 5% CO2 for 1 hour such that the cells were allowed to adhere to the dish. The medium was substituted with RPMI-1640 containing 10% human serum, followed by culture for 7 days. The medium was changed every 3 days.
ACAT-1 is an endoplasmic reticulum enzyme that converts intracellular free cholesterol into cholesterol ester. The ACAT-1 gene is important for foaming of macrophages. In order to examine effects of salusin-α and salusin-β on the ACAT-1 expression, the ACAT-1 protein expression was examined by Western blotting.
Monocyte-derived macrophages that had been cultured for 7 days were washed with PBS 3 times, followed by solubilization with the addition of 10% SDS (sodium dodecyl sulfate) (100 μL) to each dish. Each cell extraction solution was scooped up with a cell scraper, followed by pulverization with the use of a 1-mL TERUMO syringe and a 23-G injection needle for fragmentation (shearing). The resultant was centrifuged at 15,000 rpm for 3 minutes (Himac CF15D2 high-speed micro refrigerated centrifuge; Hitach, Ltd.). The supernatant protein concentration was assayed by the bicinchoninic acid (BCA) method (Pierce) and used as a cell extraction solution for Western blotting.
For ACAT-1 protein detection, an anti-human ACAT-1 polyclonal antibody (DM10 donated from Dr. Chang, Dartmouth Medical School) [Chang CCY et al., J Biol Chem. 1995; 270: 29532-29540] prepared by immunizing a rabbit was used as a primary antibody (final concentration: 0.5 μg/mL) for a reaction on a transfer membrane at room temperature for 1 hour. The transfer membrane was washed with PBS-0.1% Tween 20, followed by a reaction with a secondary antibody (anti-rabbit IgG antibody: anti-rabbit IgG donkey antibody conjugated with horseradish peroxidase (HRP) (GE Healthcare Bio-Science)) at room temperature for 1 hour. For a secondary antibody, a stock solution (0.5 μL) was diluted 10,000-fold with PBS-0.1% Tween 20 (5 mL), and the resultant was used. Washing was carried out with PBS-0.1% Tween 20, followed by ACAT-1 protein detection with the use of Lumi-Light Plus (PerkinElmer Life Sciences).
Human peripheral blood monocytes (4×10^6 cells/6-cm dish) were cultured for 7 days in an RPMI-1640 medium (2 mL) containing 10% human serum so as to differentiate into macrophages. In order to examine the salusin dose-dependent effects on the ACAT-1 protein expression, salusin-α or salusin-β was added to the medium at a concentration of 0, 0.2, 0.4, 0.6, 0.8, or 1.0 nM at the beginning of culture. On Day 7 of culture, macrophage cells differentiated from monocytes were washed with PBS and then solubilized in 10% SDS (100 μL), followed by Western blotting with the use of an ACAT-1-specific antibody. […]

Substance	ACAT-1 protein expression level relative to control (0.6 nM (peak level), added at beginning of 7-day culture, attenuated above 0.6 nM) [times]	ACAT-1 protein expression vs control cells (Day 5 or later)	inhibition of ACAT-1 protein expression (0 to 1.0 nM added at beginning of 7-day culture, concentration-dependent)	ACAT-1 protein expression vs control cells (Day 1, 3, or 5 after seeding)	ACAT-1 protein expression vs control cells (Day 7)
salusin-β: peptide (SEQ ID NO: 3) comprising 20 amino acid residues, generated by processing from preprosalusin (AIFIFIRWLLKLGHHGRAPP; listed as Homo sapiens) [reference compound]	2.1	significantly increased	–	–	–
salusin-α: peptide (SEQ ID NO: 1) comprising 28 amino acid residues, generated by processing from preprosalusin (SGALPPAPAAPRPALRAQRAGPAGPGAK; listed as Homo sapiens)	–	–	approximately 40%	not found to significantly differ	significantly inhibited
